Measured values: patent publication US20120196899A1, “METHODS AND PRODUCTS FOR TREATING INFLAMMATION” (Rock Creek Pharmaceuticals, Inc., priority 2010, published 2012)
“And” between values parts separate entries of the source, which are not always exact repeats. Identical values can stand only once. Like-named read-outs stand apart in the source and are kept apart here.

What was measured:
[1] = target: T1, nAChR α3/β4 (Homo sapiens, UniProt P30926+P32297); conditions: for Normalized % Potentiation: with 10 μM Ach (= 0%), 10 μM Ach + 1 μM epibatidine = 100%
Protocol: (§2) HEK293 or CHO cells were transiently or stably transfected with the appropriate human ion channel cDNAs. Stable transfectants were selected by coexpression with the antibiotic-resistance gene(s) incorporated into the expression plasmid(s). Selection pressure was maintained by including selection antibiotics in the culture medium. HEK293 cells were cultured in Dulbecco's Modified Eagle Medium/Nutrient Mixture F-12 (D-MEM/F-12) supplemented with 10% fetal bovine serum, 100 U/mL penicillin G sodium, 100 g/mL streptomycin sulfate and appropriate selection antibiotics. CHO cells were cultured in Ham's F-12 supplemented with 10% fetal bovine serum, 100 U/mL penicillin G sodium, 100 g/mL streptomycin sulfate and appropriate selection antibiotics.
(§3) For FLIPR TETRA™ assay, cells were plated in 384-well black wall, flat clear bottom microtiter plates (Type: BD Biocoat Poly-D-Lysine Multiwell Cell Culture Plate) at 20,000 to 30,000 cells per well (384-well plate). Cells were incubated at 37° C. overnight or until the cells reached a sufficient density in the wells (near confluent monolayer) to use in fluorescence assays. For α4β2 assay, cells were incubated at 27° C. for at least 7 hours before use.
(§4) Experiments were performed with either the FLIPR calcium sensitive dye kit (Fluo-8, ABDbioquest, for nAChR α3/β4 and nAChR α7) or FLIPR membrane potential kit (Molecular Devices, for nAChR α4/β2) according to the manufacturer's instructions. Briefly, cells were incubated with 201 dye for 30 min at 37° C. After dye loading period, for the agonist assay, 5 μl of the test, vehicle, or control articles at concentration of 5 times of final concentration were applied to the cells without stimulation. For the positive allosteric modulation (PAM) and antagonist assay, after test article application, the cells were stimulated with either low dose (for PAM) or high dose (for antagonist) of Ach.
The signal elicited in the presence of the positive control agonist and allosteric modulator (10 μM Ach+1 μM epibatidine) was set to 100% and the signal from the agonist control (10 μM Ach) was set to 0%.

[2] = Physical signs after single i.v. dose (Example 3); type: in vivo, Sprague-Dawley rats; conditions: nicotine 0.4 mg/kg single i.v.; all males and two females
Protocol: Four aliquots of each dose level formulation were collected and stored at −80° C. The test compound, corresponding dose level, number of animals, and sample collection times for Phase I of the study are shown in Table 3. The test compound, corresponding dose level, number of animals, and sample collection times for Phase II of the study are shown in Table 4. The physical signs of each animal were monitored following administration of the test compound.

[3] = target: T2, nAChR α7 (Homo sapiens, UniProt P36544); assay: nAChR α7 channel agonist assay (FLIPR, with PNU-120596); type: cell-based; conditions: for Normalized % Activation: in presence of PNU-120596, 30 μM Ach + 10 μM PNU-120596 = 100%, HBPS = 0%
T2 construct: host or cells: CHO cells
Protocol: Therefore, the assay of agonist activity for either Ach or for the test articles was conducted in the presence of the positive allosteric modulator.

[4] = Necropsy observations and organ weights, day 15; type: in vivo, Sprague-Dawley rats
Protocol: Body weight and food consumption was measured daily for 14 days. On day 15, urine was collected on all surviving animals. The animals were euthanized and bled via cardiac puncture, and blood was collected for analysis. Tissues were collected, weighed, evaluated for gross abnormalities, and stored in 10% neutral-buffered formalin.
(§1) On day 15, urine was collected on all surviving animals for urinalysis. The animals were euthanized and bled via cardiac puncture. Blood was collected for hematology, clinical chemistry, and coagulation analysis. Tissues were collected, weighed, and stored in 10% neutral-buffered formalin for possible future analysis.

[5] = test system: TNFα-induced NFκB activity; assay: NFκB luciferase assay (inhibition of TNFα-induced NFκB activity) in HEK293 reporter cells; type: cell-based, Human; conditions: HEK293 reporter cells challenged with TNFα for three hours
Protocol: The smokeless tobacco used in these experiments was plain long-leaf Copenhagen tobacco purchased from a local vendor. Crude extract was extracted with methanol and water and clarified by centrifugation and filtration. The alkaloid extract was prepared from sodium hydroxide and methanol extraction, organic phase separation and purification. All treatment samples were prepared as a function of weight (μg/ml), and all samples were diluted in DMSO.
Human […] kidney cells (HEK293) transfected with an NFκB luciferase reporter were challenged with TNFα for three hours, then samples were applied to the challenged cells.

[6] = Coagulation parameters (aPTT, PT), day 15; type: in vivo, Sprague-Dawley rats; conditions: for ACTIVATED PARTIAL THROMBOPLASTIN TIME: 0.75 mg/kg, group mean; for ACTIVE PARTIAL THROMBOPLASTIN TIME: nicotine 0.75 mg/kg, individual animals, tartrate
Excerpt: as §1
Individual values for the coagulation parameters activated partial thromboplastin (aPTT) and prothrombin times (PT) for each animal are listed in Table 34 (normal ranges, Table 30). These are summarized in terms of descriptive statistics in Table 25.

[7] = target: T3, nAChR α4/β2 (Homo sapiens, UniProt P17787+P43681); assay: nAChR α4/β2 channel agonist assay (FLIPR membrane potential); type: cell-based; conditions: 30 μM Ach = 100%, HBPS = 0%
T3 construct: host or cells: HEK293 cells, transient transfection
Protocol: (§5) The following three (3) channels were evaluated: • 1. nAChR α3/β4 (encoded by the human CHRNA3 and CHRNB4 gene and stably expressed in CHO cells); • 2. nAChR α4/β2 (CHRNA4 and CHRNB2 gene and transiently expressed in HEK293 cells); and • 3. nAChR α7 (encoded by the human nicotinic α7 gene coexpressed in CHO cells with the chaperone RIC-3 encoded by the human RIC3 gene).
(§6) The ability of each test article to act as an agonist, a positive allosteric modulator or antagonist of three nAChR receptor channels was evaluated in the presence of 0.1 atropine. Both test articles were evaluated for responses on each nAChR channel at eight (8) concentrations: 0.3, 1, 3, 10, 30, 100, 300, and 1000 μM (n=4 for each concentration).
as §2, §3, §4
(§7) Concentration-response data was fitted to a Hill equation of the following form:
(§8) where Base is the response at low concentrations of test article, Max is the maximum response at high concentrations, xhalf is the EC50 or IC50, the concentration of test article producing either half-maximal activation or inhibition, and rate is the Hill coefficient. Nonlinear least squares fits were made assuming a simple one-to-one binding model.
The ability of each test article to act as an agonist of the nAChR carried out in the absence of the positive control agonist. The signal elicited in the presence of the positive control agonist (30 μM Ach) was set to 100% and the signal from the vehicle control (HBPS) was set to 0%. Values were considered significant (bold font) if the test article mean was three or more standard deviations above from the vehicle control mean.

[8] = target: T1, nAChR α3/β4; assay: nAChR α3/β4 channel agonist assay (FLIPR, Fluo-8 calcium); conditions: 30 μM Ach = 100%, HBPS = 0%
Protocol: as §5, §6, §2, §3, §4, §7, §8
The ability of both test articles to act as an agonist of nAChR carried out in the absence of the positive control agonist. The signal elicited in the presence of the positive control agonist, 30 μM acetylcholine (Ach) was set to 100% and the signal from the vehicle control, HEPES-buffered physiological saline (HBPS) solution was set to 0%.

[9] = Group E, 0.75 mg/kg, females, individual animals, tartrate, 0.75 mg/kg
[10] = Group E, 0.75 mg/kg, males, individual animals, tartrate, 0.75 mg/kg
[11] = female animals, 0.75 mg/kg, group mean
[12] = nicotine 0.75 mg/kg single i.v., male rats

T2 sequence (P36544 23-502): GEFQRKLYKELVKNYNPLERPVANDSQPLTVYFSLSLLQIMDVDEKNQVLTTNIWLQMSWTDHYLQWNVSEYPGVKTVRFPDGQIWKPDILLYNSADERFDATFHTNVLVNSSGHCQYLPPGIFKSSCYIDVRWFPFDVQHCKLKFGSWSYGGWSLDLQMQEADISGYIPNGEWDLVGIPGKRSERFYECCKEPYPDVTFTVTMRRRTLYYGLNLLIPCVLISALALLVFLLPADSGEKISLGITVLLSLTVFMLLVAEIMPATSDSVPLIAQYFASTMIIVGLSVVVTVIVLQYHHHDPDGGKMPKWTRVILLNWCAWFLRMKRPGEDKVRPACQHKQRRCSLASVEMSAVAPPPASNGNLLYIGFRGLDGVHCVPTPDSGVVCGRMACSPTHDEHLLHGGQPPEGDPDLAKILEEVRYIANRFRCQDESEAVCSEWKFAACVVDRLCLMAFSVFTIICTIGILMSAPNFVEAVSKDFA
T3 sequence (P17787 26-502): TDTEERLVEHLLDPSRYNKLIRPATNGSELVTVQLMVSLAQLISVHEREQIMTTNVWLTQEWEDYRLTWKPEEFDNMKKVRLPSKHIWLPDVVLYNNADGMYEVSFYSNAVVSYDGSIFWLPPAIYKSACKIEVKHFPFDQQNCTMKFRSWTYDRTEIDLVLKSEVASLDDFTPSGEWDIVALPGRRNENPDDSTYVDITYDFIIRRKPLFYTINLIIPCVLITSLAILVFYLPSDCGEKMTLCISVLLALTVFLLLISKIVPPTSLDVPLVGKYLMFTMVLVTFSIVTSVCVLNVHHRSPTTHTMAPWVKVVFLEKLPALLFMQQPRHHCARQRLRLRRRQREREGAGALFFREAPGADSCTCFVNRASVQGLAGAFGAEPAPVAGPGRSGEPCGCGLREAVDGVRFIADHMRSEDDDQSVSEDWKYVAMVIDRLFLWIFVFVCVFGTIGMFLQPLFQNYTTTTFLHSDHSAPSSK
T3 sequence (P43681 29-627): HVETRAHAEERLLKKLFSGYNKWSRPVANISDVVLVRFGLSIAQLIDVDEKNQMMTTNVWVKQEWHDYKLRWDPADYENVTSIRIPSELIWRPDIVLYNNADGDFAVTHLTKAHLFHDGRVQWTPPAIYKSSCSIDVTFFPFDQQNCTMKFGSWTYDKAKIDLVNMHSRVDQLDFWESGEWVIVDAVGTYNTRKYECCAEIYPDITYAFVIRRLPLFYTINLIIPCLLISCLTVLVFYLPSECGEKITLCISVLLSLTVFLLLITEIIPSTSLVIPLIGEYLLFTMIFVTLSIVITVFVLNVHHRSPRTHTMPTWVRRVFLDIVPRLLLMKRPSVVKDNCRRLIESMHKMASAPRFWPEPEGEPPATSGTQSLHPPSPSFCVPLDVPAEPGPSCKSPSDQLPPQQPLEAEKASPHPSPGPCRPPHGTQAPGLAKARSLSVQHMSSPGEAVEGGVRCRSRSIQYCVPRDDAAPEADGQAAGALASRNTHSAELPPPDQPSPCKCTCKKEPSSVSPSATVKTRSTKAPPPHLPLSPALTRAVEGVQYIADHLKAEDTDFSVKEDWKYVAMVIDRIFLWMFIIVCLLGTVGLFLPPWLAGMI
T1 sequence (P32297 32-505): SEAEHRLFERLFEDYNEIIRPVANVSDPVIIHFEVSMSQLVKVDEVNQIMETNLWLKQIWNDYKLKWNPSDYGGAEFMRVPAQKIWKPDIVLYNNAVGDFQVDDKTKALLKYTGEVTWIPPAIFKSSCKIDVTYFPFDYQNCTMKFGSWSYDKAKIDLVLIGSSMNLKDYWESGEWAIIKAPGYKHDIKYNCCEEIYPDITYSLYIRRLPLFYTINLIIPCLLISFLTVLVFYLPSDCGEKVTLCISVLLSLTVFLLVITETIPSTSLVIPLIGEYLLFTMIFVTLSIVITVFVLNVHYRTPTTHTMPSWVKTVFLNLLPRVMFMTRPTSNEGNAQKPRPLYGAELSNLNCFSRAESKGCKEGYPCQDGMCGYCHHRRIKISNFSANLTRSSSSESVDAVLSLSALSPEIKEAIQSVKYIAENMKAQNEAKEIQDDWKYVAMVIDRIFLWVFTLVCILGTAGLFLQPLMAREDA
T1 sequence (P30926 22-498): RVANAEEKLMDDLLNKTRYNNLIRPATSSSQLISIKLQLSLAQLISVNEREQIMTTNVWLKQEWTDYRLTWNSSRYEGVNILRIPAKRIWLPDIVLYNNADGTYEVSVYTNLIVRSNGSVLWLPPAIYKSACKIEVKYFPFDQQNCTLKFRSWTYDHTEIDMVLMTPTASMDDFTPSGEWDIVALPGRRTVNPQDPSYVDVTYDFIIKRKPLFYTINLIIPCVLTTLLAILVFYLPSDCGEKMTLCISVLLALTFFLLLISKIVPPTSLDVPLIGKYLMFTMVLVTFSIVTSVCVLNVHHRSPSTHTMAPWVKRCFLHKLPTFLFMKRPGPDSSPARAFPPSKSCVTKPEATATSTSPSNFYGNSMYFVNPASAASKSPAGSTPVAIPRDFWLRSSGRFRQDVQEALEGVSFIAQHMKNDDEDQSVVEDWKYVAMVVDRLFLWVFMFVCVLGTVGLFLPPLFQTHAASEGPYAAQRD

CN1CCCC1c1cccnc1.O=C(O)C(O)C(O)C(=O)O (single isomer, unassigned; (-)) [Nicotine, (−) Nicotine hydrogen tartrate, reference compound]
potentiation [1]: Neither nicotine nor anatabine potentiated the activity | physical signs [2]: experienced tremors immediately post dose | agonist activity ([3]; with 10 μM PNU-120596, maximal stimulation not achieved): showed agonist activity | Tissue Collection Weights: Brain [4, 9]: 1.77 g and 1.93 g and 1.87 g | Tissue Collection Weights: Heart [4, 9]: 1.09 g and 1.06 g and 0.83 g | Tissue Collection Weights: Kidneys [4, 9]: 2.34 g and 2.29 g (2×) | Tissue Collection Weights: Liver [4, 9]: 9.48 g and 10.11 g and 9.18 g | Tissue Collection Weights: Lungs [4, 9]: 1.20 g and 1.48 g and 1.28 g | Tissue Collection Weights: Ovaries/uterus [4, 9]: 1.59 g and 0.92 g and 1.32 g | Tissue Collection Weights: Small intestine [4, 9]: 0.41 g and 0.40 g and 0.28 g | Tissue Collection Weights: Spleen [4, 9]: 0.46 g (2×) and 0.76 g | Tissue Collection Weights: Thymus [4, 9]: 0.54 g and 0.48 g (2×) | Tissue Collection Weights: Brain [4, 10]: 2.06 g and 1.90 g and 1.84 g and 1.94 g | Tissue Collection Weights: Heart [4, 10]: 1.20 g and 1.17 g and 1.21 g and 1.42 g | Tissue Collection Weights: Kidneys [4, 10]: 3.19 g and 3.04 g and 2.87 g and 3.01 g | Tissue Collection Weights: Liver [4, 10]: 11.97 g and 12.52 g and 12.06 g | Tissue Collection Weights: Lungs [4, 10]: 1.84 g and 1.49 g and 1.62 g and 1.66 g | Tissue Collection Weights: Prostate [4, 10]: 0.41 g and 0.28 g (2×) and 0.45 g | Tissue Collection Weights: Small intestine [4, 10]: 0.71 g and 0.56 g and 0.53 g and 0.40 g | Tissue Collection Weights: Spleen [4, 10]: 0.81 g and 0.62 g and 0.78 g and 0.86 g | Tissue Collection Weights: Testes [4, 10]: 3.05 g and 3.13 g and 3.02 g and 2.92 g | Tissue Collection Weights: Thymus [4, 10]: 0.54 g and 0.46 g and 0.56 g and 0.76 g | Organ Weight Brain [4, 11]: 1.86 g | Organ Weight Heart [4, 11]: 0.99 g | Organ Weight Kidneys [4, 11]: 2.31 g | Organ Weight Liver [4, 11]: 9.59 g | Organ Weight Lungs [4, 11]: 1.32 g | Organ Weight Ovaries/uterus [4, 11]: 1.28 g | Organ Weight Small intestine [4, 11]: 0.36 g | Organ Weight Spleen [4, 11]: 0.56 g | Organ Weight Thymus [4, 11]: 0.50 g | Organ Weight Brain, Mean [4, 12]: 1.94 g | Organ Weight Heart, Mean [4, 12]: 1.25 g | Organ Weight Kidneys, Mean [4, 12]: 3.03 g | Organ Weight Liver, Mean [4, 12]: 12.69 g | Organ Weight Lungs, Mean [4, 12]: 1.65 g | Organ Weight Prostate, Mean [4, 12]: 0.36 g | Organ Weight Small intestine, Mean [4, 12]: 0.55 g | Organ Weight Spleen, Mean [4, 12]: 0.77 g | Organ Weight Testes, Mean [4, 12]: 3.03 g | Organ Weight Thymus, Mean [4, 12]: 0.58 g | TNFα-induced NFκB-mediated transcription of luciferase [5]: reduce TNFα-induced NFκB-mediated transcription | ACTIVATED PARTIAL THROMBOPLASTIN TIME ([6]; female): 16.9 s | ACTIVATED PARTIAL THROMBOPLASTIN TIME ([6]; male): 16.3 s | aPTT versus vehicle control ([6]; nicotine 0.75 mg/kg single i.v., male and female, day 15): aPTT was significantly lower relative to the vehicle control group | ACTIVE PARTIAL THROMBOPLASTIN TIME ([6]; female rats): 18.7 s and 15 s | ACTIVE PARTIAL THROMBOPLASTIN TIME ([6]; male rats): 15 s and 16.3 s and 17.6 s and 16.2 s

C1=CCC(c2cccnc2)NC1 (racemic) [Anatabine (racemate)]
Normalized % Activation ([7]; test conc 0.3 μM): 0.28% | Normalized % Activation ([7]; test conc 1 μM): 5.36% | Normalized % Activation ([7]; test conc 3 μM): 10.41% | Normalized % Activation ([7]; test conc 10 μM): 12.65% | Normalized % Activation ([7]; test conc 30 μM): 9.07% | Normalized % Activation ([7]; test conc 100 μM): 16.96% | Normalized % Activation ([7]; test conc 300 μM): 50.60% | Normalized % Activation ([7]; test conc 1000 μM): 85.29% | Normalized % Activation ([8]; test conc 0.3 μM): 1.32% | Normalized % Activation ([8]; test conc 1 μM): −0.01% | Normalized % Activation ([8]; test conc 3 μM): −1.53% | Normalized % Activation ([8]; test conc 10 μM): −2.73% | Normalized % Activation ([8]; test conc 30 μM): 4.93% | Normalized % Activation ([8]; test conc 100 μM): 10.44% | Normalized % Activation ([8]; test conc 300 μM): 16.97% | Normalized % Potentiation ([1]; test conc 0.3 μM): −1.98% | Normalized % Potentiation ([1]; test conc 1 μM): −4.08% | Normalized % Potentiation ([1]; test conc 3 μM): −2.88% | Normalized % Potentiation ([1]; test conc 10 μM): −3.20% | Normalized % Potentiation ([1]; test conc 30 μM): −8.50% | Normalized % Potentiation ([1]; test conc 100 μM): −9.46% | Normalized % Potentiation ([1]; test conc 300 μM): −9.38% | Normalized % Potentiation ([1]; test conc 1000 μM): −9.17% | Normalized % Activation ([3]; test conc 0.3 μM): −1.81% | Normalized % Activation ([3]; test conc 1 μM): 0.34% | Normalized % Activation ([3]; test conc 3 μM): 0.78% | Normalized % Activation ([3]; test conc 10 μM): 1.65% | Normalized % Activation ([3]; test conc 30 μM): 2.27% | Normalized % Activation ([3]; test conc 100 μM): 5.69% | Normalized % Activation ([3]; test conc 300 μM): 14.45% | Normalized % Activation ([3]; test conc 1000 μM): 60.41%
